In US10894798B2, “Substituted dihydropyrrolopyrazole derivative” (UBE INDUSTRIES, LTD., priority 2015, dated 2021):

Columns and labels:
CDK7 = molecular target: T1, CDK7 (Homo sapiens, UniProt P50613); assay: CDK7 enzyme inhibition test; type: biochemical; conditions: [γ-33P]ATP, MBP substrate, 60 min preincubation at 25°C; Ki=IC50/(1+S/Km); read-out: Ki value of CDK7 inhibitory activity
T1 construct: purchased Carna Biosciences, Inc. 04-108
Experimental: The preparation of a buffer solution was performed by mixing a N-2-hydroxyethylpiperazine-N′-2-ethanesulfonic acid buffer solution (HEPES buffer solution) (pH 7.4), dithiothreitol (DTT), Triton X-100, and magnesium chloride (MgCl2). A 500 μM [γ-^33P]ATP solution was used by diluting a 10 mM ATP solution and a commercially available [γ-^33P]ATP solution (manufactured by PerkinElmer, Inc., Code No. NEG-302H) with the buffer solution. A CDK7 solution was used by diluting commercially available CDK7 (manufactured by Carna Biosciences, Inc., Catalog No. 04-108) with the buffer solution. A substrate solution was used by diluting myelin basic protein (MBP) with the buffer solution. As for the preparation of a reaction solution, the buffer solution, the CDK7 solution, and the substrate solution were mixed at 4° C. to obtain a reaction solution.
CDK7 enzyme reaction was performed by adding 5 μL of a test compound solution prepared with 10% DMSO/90% injectable distilled water, and 40 μL of the reaction solution to a 1.5 mL microtube at 4° C. and preincubating the microtube at 25° C. for 60 minutes in a water bath incubator. Subsequently, reaction was performed at 30° C. for 20 minutes by adding 5 μL of the 500 μM [γ-^33P]ATP solution. After the reaction, a 10% aqueous trichloroacetic acid (TCA) solution was added to each microtube while cooled to 4° C., and mixed in a vortex mixer to terminate the reaction. The resultant was left standing at 4° C. for 10 minutes and then centrifuged, and the supernatant was discarded. Next, a 2% aqueous trichloroacetic acid (TCA) solution was added thereto, mixed in a vortex mixer, and then centrifuged, and the supernatant was discarded. This washing operation was performed twice. After the washing, precipitates were dissolved in a 1 N aqueous sodium hydroxide (NaOH) solution, and the energy quantity (radioactivity) of the reaction product was measured with a liquid scintillation counter.
The calculation of the inhibitory activity of the test compound against CDK7 was performed as a test compound concentration inhibiting 50% of the amount of ^33P bound to MBP (IC50 value) by using EXSUS (version 8.1.0, manufactured by CAC Exicare Corp.).
The calculation of a Ki value was performed according to the following calculation expression wherein S represents the concentration of ATP contained in the reaction solution, and Km represents a Michaelis-Menten constant: Ki=IC50/(1+S/Km)

[1] = test system: human large intestine cancer cell line (HCT-116); assay: Human large intestine cancer (HCT-116) cell growth inhibition test; type: cell-based; conditions: HCT-116, 72 h, culture for 3 days, sulforhodamine B, read-out: GI50 value, HCT-116 cell growth inhibition
Experimental: The measurement of a human large intestine cancer cell growth inhibitory effect was carried out by modifying the method of Simak et al. (Cancer Research, 69, 6208 (2009)).
A human large intestine cancer cell line (HCT-116, obtained from DS Pharma Biomedical Co., Ltd.) was cultured in a McCoy's 5A medium (manufactured by Thermo Fisher Scientific, Inc.) containing 10% fetal bovine serum (FBS) (manufactured by Thermo Fisher Scientific, Inc.) and 1% penicillin/streptomycin/amphotericin B (manufactured by Thermo Fisher Scientific, Inc.) and inoculated at 0.5 to 2.0×10^3 cells/well in a 96-well plate. After overnight culture in a carbon dioxide incubator, the medium was replaced with a fresh medium on the next day, and a test compound dissolved in DMSO (final DMSO concentration: 0.1%) was added thereto and left standing in a carbon dioxide incubator. After culture for 3 days, the absorbance thereof was measured by using In Vitro Toxicology Assay Kit Sulforhodamine B based (manufactured by Sigma-Aldrich Co. LLC.).
The rate of inhibition of cell growth at each concentration was calculated from the test compound concentration and the absorbance of sulforhodamine B, and the concentration of the test compound necessary for inhibiting 50% of cell growth (GI50 value) was calculated by using EXSUS (version 8.1.0, manufactured by CAC Exicare Corp.).

T1 sequence (P50613 whole entry): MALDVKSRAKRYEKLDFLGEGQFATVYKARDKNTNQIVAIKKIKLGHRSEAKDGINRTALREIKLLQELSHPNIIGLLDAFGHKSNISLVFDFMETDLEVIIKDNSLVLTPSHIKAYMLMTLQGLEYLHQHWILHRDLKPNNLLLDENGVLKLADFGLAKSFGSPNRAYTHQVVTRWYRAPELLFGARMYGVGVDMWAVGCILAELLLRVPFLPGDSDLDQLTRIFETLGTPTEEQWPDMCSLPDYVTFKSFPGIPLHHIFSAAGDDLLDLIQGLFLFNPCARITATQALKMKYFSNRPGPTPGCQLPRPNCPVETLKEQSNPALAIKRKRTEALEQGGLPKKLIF
T1 sequence (P51946 whole entry partner): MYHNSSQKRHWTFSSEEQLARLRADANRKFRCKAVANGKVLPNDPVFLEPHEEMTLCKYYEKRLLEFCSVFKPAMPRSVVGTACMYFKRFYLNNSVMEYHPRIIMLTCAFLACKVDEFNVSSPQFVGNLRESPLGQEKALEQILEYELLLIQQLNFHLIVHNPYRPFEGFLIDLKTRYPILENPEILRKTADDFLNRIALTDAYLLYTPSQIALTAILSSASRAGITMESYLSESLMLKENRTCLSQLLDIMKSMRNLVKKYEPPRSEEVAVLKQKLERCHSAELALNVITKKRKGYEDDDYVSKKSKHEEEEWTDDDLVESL
T1 sequence (P51948 whole entry partner): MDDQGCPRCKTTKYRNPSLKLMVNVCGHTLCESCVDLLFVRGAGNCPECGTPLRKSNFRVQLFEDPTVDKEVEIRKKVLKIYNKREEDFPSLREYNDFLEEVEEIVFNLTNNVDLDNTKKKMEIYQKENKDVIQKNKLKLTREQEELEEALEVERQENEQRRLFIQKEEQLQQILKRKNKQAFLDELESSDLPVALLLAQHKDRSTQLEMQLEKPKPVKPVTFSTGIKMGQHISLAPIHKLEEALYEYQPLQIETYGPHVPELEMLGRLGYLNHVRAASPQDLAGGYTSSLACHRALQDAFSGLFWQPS

SMILES | Ki (CDK7) [µM] | GI50 [1] [µM]
CC1(C)c2[nH]nc(NC(=O)C3([Si](C)(C)C)CCC3)c2CN1C(=O)Nc1ccccc1C(F)(F)F [IV-51, 6,6-Dimethyl-N-[2-(trifluoromethyl)phenyl]-3-[1-(trimethylsilyl)cyclobutanecarboxamido]-4,6-dihydropyrrolo[3,4-c]pyrazole-5 (1H)-carboxamide] | ≤ 0.05 | ≤ 0.1
CC1(C)c2[nH]nc(NC(=O)C3([Si](C)(C)C)CCC3)c2CN1C(=O)Nc1ccc(F)cc1 [IV-7, N-(4-Fluorophenyl)-6,6-dimethyl-3-[1-(trimethylsilyl)cyclobutanecarboxamido]-4,6-dihydropyrrolo[3,4-c]pyrazole-5(1H)-carboxamide] | ≤ 0.05 | ≤ 0.1
CC1(C)c2[nH]nc(NC(=O)C3([Si](C)(C)C)CCC3)c2CN1C(=O)Nc1ccc(F)cc1F [IV-101, N-(2,4-Difluorophenyl)-6,6-dimethyl-3-[1-(trimethylsilyl)cyclobutanecarboxamido]-4,6-dihydropyrrolo[3,4-c]pyrazole-5(1H)-carboxamide] | ≤ 0.05 | ≤ 0.1
Cc1cccc(NC(=O)N2Cc3c(NC(=O)C4([Si](C)(C)C)CCC4)n[nH]c3C2(C)C)c1F [IV-123, N-(2-Fluoro-3-methylphenyl)-6,6-dimethyl-3-[1-(trimethylsilyl)cyclobutanecarboxamido]-4,6-dihydropyrrolo[3,4-c]pyrazole-5 (1H)-carboxamide] |  | ≤ 0.1
Cc1ccc(NC(=O)N2Cc3c(NC(=O)C4([Si](C)(C)C)CCC4)n[nH]c3C2(C)C)c(F)c1 [IV-125, N-(2-Fluoro-4-methylphenyl)-6,6-dimethyl-3-[1-(trimethylsilyl)cyclobutanecarboxamido]-4,6-dihydropyrrolo[3,4-c]pyrazole-5 (1H)-carboxamide] | ≤ 0.05 | ≤ 0.1
CC[Si](C)(C)C1(C(=O)Nc2n[nH]c3c2CN(C(=O)Nc2ccccc2F)C3(C)C)CCC1 [IV-4, 3-[1-(Ethyldimethylsilyl)cyclobutanecarboxamido]-N-(2-fluorophenyl)-6,6-dimethyl-4,6-dihydropyrrolo[3,4-c]pyrazole-5(1H)-carboxamide] |  | ≤ 0.1
Cc1cccc(Br)c1NC(=O)N1Cc2c(NC(=O)C(C)(C)[Si](C)(C)C)n[nH]c2C1(C)C [II-290, N-(2-Bromo-6-methylphenyl)-6,6-dimethyl-3-[2-methyl-2-(trimethylsilyl)propanamido]-4,6-dihydropyrrolo[3,4-c]pyrazole-5(1H)-carboxamide] | ≤ 0.05 | 
COc1ccc(NC(=O)N2Cc3c(NC(=O)C4([Si](C)(C)C)CCC4)n[nH]c3C2(C)C)cc1 [IV-79, N-(4-Methoxyphenyl)-6,6-dimethyl-3-[1-(trimethylsilyl)cyclobutanecarboxamido]-4,6-dihydropyrrolo[3,4-c]pyrazole-5(1H)-carboxamide] | ≤ 0.05 | ≤ 0.1
CC1(C)c2[nH]nc(NC(=O)C3([Si](C)(C)C)CCC3)c2CN1C(=O)Nc1cc(Cl)ccc1Cl [IV-197, N-(2,5-Dichlorophenyl)-6,6-dimethyl-3-[1-(trimethylsilyl)cyclobutanecarboxamido]-4,6-dihydropyrrolo[3,4-c]pyrazole-5(1H)-carboxamide] |  | ≤ 0.1
CC1(C)c2[nH]nc(NC(=O)C3([Si](C)(C)C)CCC3)c2CN1C(=O)Nc1cc(Cl)ccc1F [IV-111, N-(5-Chloro-2-fluorophenyl)-6,6-dimethyl-3-[1-(trimethylsilyl)cyclobutanecarboxamido]-4,6-dihydropyrrolo[3,4-c]pyrazole-5 (1H)-carboxamide] | ≤ 0.05 | ≤ 0.1
Cc1cccc(Br)c1NC(=O)N1Cc2c(NC(=O)C3([Si](C)(C)C)CC3)n[nH]c2C1(C)C [III-299, N-(2-Bromo-6-methylphenyl)-6,6-dimethyl-3-[1-(trimethylsilyl)cyclopropanecarboxamido]-4,6-dihydropyrrolo[3,4-c]pyrazole-5(1H)-carboxamide] | ≤ 0.05 | ≤ 0.1
Cc1cccc(NC(=O)N2Cc3c(NC(=O)C4([Si](C)(C)C)CCC4)n[nH]c3C2(C)C)c1C [IV-375, N-(2,3-Dimethylphenyl)-6,6-dimethyl-3-[1-(trimethylsilyl)cyclobutanecarboxamido]-4,6-dihydropyrrolo[3,4-c]pyrazole-5(1H)-carboxamide] | ≤ 0.05 | ≤ 0.1
Cc1ccc(Cl)c(NC(=O)N2Cc3c(NC(=O)C4([Si](C)(C)C)CCC4)n[nH]c3C2(C)C)c1 [IV-213, N-(2-Chloro-5-methylphenyl)-6,6-dimethyl-3-[1-(trimethylsilyl)cyclobutanecarboxamido]-4,6-dihydropyrrolo[3,4-c]pyrazole-5 (1H)-carboxamide] |  | ≤ 0.1
Cc1ccc(NC(=O)N2Cc3c(NC(=O)C4([Si](C)(C)C)CCC4)n[nH]c3C2(C)C)cc1 [IV-25, 6,6-Dimethyl-N-(p-tolyl)-3-[1-(trimethylsilyl)cyclobutanecarboxamido]-4,6-dihydropyrrolo[3,4-c]pyrazole-5(1H)-carboxamide] |  | ≤ 0.1
CN(C(=O)N1Cc2c(NC(=O)C3([Si](C)(C)C)CCC3)n[nH]c2C1(C)C)c1ccccc1 [I-965, N,6,6-Trimethyl-N-phenyl-3-[1-(trimethylsilyl)cyclobutanecarboxamido]-4,6-dihydropyrrolo[3,4-c]pyrazole-5(1H)-carboxamide] | ≤ 0.05 | 
COc1ccc(Cl)c(NC(=O)N2Cc3c(NC(=O)C4([Si](C)(C)C)CCC4)n[nH]c3C2(C)C)c1 [IV-245, N-(2-Chloro-5-methoxyphenyl)-6,6-dimethyl-3-[1-(trimethylsilyl)cyclobutanecarboxamido]-4,6-dihydropyrrolo[3,4-c]pyrazole-5(1H)-carboxamide] |  | ≤ 0.1
CC1(C)c2[nH]nc(NC(=O)C3([Si](C)(C)C)CCC3)c2CN1C(=O)Nc1cccnc1 [IV-1019, 6,6-Dimethyl-N-(pyridin-3-yl)-3-[1-(trimethylsilyl)cyclobutanecarboxamido]-4,6-dihydropyrrolo[3,4-c]pyrazole-5(1H)-carboxamide] | ≤ 0.05 | 
CC1(C)c2[nH]nc(NC(=O)C3([Si](C)(C)C)CCC3)c2CN1C(=O)Nc1cccc(Cl)c1 [IV-11, N-(3-Chlorophenyl)-6,6-dimethyl-3-[1-(trimethylsilyl)cyclobutanecarboxamido]-4,6-dihydropyrrolo[3,4-c]pyrazole-5(1H)-carboxamide] |  | ≤ 0.1
CCOc1ccccc1NC(=O)N1Cc2c(NC(=O)C3([Si](C)(C)C)CCC3)n[nH]c2C1(C)C [IV-81, N-(2-Ethoxyphenyl)-6,6-dimethyl-3-[1-(trimethylsilyl)cyclobutanecarboxamido]-4,6-dihydropyrrolo[3,4-c]pyrazole-5(1H)-carboxamide] |  | ≤ 0.1
CC1(C)c2[nH]nc(NC(=O)C3([Si](C)(C)C)CCC3)c2CN1C(=O)Nc1cc(F)ccc1Cl [IV-191, N-(2-Chloro-5-fluorophenyl)-6,6-dimethyl-3-[1-(trimethylsilyl)cyclobutanecarboxamido]-4,6-dihydropyrrolo[3,4-c]pyrazole-5 (1H)-carboxamide] |  | ≤ 0.1
CC1(C)c2[nH]nc(NC(=O)C3([Si](C)(C)C)CCC3)c2CN1C(=O)Nc1cccc(F)c1 [IV-5, N-(3-Fluorophenyl)-6,6-dimethyl-3-[1-(trimethylsilyl)cyclobutanecarboxamido]-4,6-dihydropyrrolo[3,4-c]pyrazole-5(1H)-carboxamide] |  | ≤ 0.1
